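Values below derive from 48-hour exposures of cells grown in 96-well plates, with endpoints linearly interpolated between the two concentrations bracketing the appropriate inhibition level. TGI: concentration producing complete growth inhibition.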
Tests used:
Assay in all cases: growth of human tumour cells (NCI), 48 h
CCRF-CEM leukemia = test system: CCRF-CEM leukemia
TK-10 renal = test system: TK-10 renal
SK-OV-3 ovarian = test system: SK-OV-3 ovarian
NCI-H226 lung = test system: NCI-H226 lung
KM12 colon = test system: KM12 colon
NCI-H23 lung = test system: NCI-H23 lung
NCI-H460 lung = test system: NCI-H460 lung
XF 498 CNS = test system: XF 498 CNS
UO-31 renal = test system: UO-31 renal
RXF-631 renal = test system: RXF-631 renal
ACHN renal = test system: ACHN renal
HCT-15 colon = test system: HCT-15 colon
UACC-62 melanoma = test system: UACC-62 melanoma
M14 melanoma = test system: M14 melanoma
MOLT-4 leukemia = test system: MOLT-4 leukemia
HOP-92 NSCLC = test system: HOP-92 NSCLC
UACC-257 melanoma = test system: UACC-257 melanoma
SK-MEL-28 melanoma = test system: SK-MEL-28 melanoma
NCI-H522 lung = test system: NCI-H522 lung
SK-MEL-2 melanoma = test system: SK-MEL-2 melanoma
OVCAR-3 ovarian = test system: OVCAR-3 ovarian
SF-268 CNS = test system: SF-268 CNS
OVCAR-4 ovarian = test system: OVCAR-4 ovarian
SW-620 colon = test system: SW-620 colon
M19-MEL melanoma = test system: M19-MEL melanoma
IGROV1 ovarian = test system: IGROV1 ovarian
HOP-62 NSCLC = test system: HOP-62 NSCLC
LXFL 529 NSCLC = test system: LXFL 529 NSCLC
RPMI-8226 leukemia = test system: RPMI-8226 leukemia
KM20L2 colon = test system: KM20L2 colon
HOP-18 NSCLC = test system: HOP-18 NSCLC
SN12C renal = test system: SN12C renal
A549 NSCLC = test system: A549 NSCLC
HT29 colon = test system: HT29 colon
OVCAR-5 ovarian = test system: OVCAR-5 ovarian
OVCAR-8 ovarian = test system: OVCAR-8 ovarian
HCC-2998 colon = test system: HCC-2998 colon
EKVX NSCLC = test system: EKVX NSCLC
HCT-116 colon = test system: HCT-116 colon
MALME-3M melanoma = test system: MALME-3M melanoma
SF-539 CNS = test system: SF-539 CNS
SK-MEL-5 melanoma = test system: SK-MEL-5 melanoma
LOX IMVI melanoma = test system: LOX IMVI melanoma
SNB-75 CNS = test system: SNB-75 CNS
CAKI-1 renal = test system: CAKI-1 renal
SF-295 CNS = test system: SF-295 CNS
786-0 renal = test system: 786-0 renal
DMS 273 small cell lung = test system: DMS 273 small cell lung
COLO 205 colon = test system: COLO 205 colon
SNB-19 CNS = test system: SNB-19 CNS
DLD-1 colon = test system: DLD-1 colon
K-562 leukemia = test system: K-562 leukemia
U251 CNS = test system: U251 CNS
SNB-78 CNS = test system: SNB-78 CNS
RXF 393 renal = test system: RXF 393 renal
DMS 114 small cell lung = test system: DMS 114 small cell lung
HL-60(TB) leukemia = test system: HL-60(TB) leukemia
A498 renal = test system: A498 renal
SR leukemia = test system: SR leukemia

Molecule `Cn1cc(NC(=O)c2cc(NC(=O)CCCCCCCCC(=O)Nc3cc(C(=O)Nc4cc(C(=O)NCCC(N)N)n(C)c4)n(C)c3)cn2C)cc1C(=O)NCCC(=N)N` has a TGI (CCRF-CEM leukemia) of 49.3 µM, a TGI (TK-10 renal) of 38.9 µM and a TGI (SK-OV-3 ovarian) of 78.7 µM. The TGI (NCI-H226 lung) was 70.7 µM, the TGI (KM12 colon) was 63.4 µM and the TGI (NCI-H23 lung) was > 100 µM. The TGI (NCI-H460 lung) was 62 µM, the TGI (XF 498 CNS) was 66.8 µM and the TGI (UO-31 renal) was 56.9 µM. For the same molecule, the TGI (RXF-631 renal) was 71.2 µM, the TGI (ACHN renal) was 36.5 µM and the TGI (HCT-15 colon) was > 100 µM. For the same molecule, the TGI (UACC-62 melanoma) was 60.1 µM, the TGI (M14 melanoma) was 66.3 µM and the TGI (MOLT-4 leukemia) was 49.1 µM. It also gave a TGI (HOP-92 NSCLC) of 65.2 µM, a TGI (UACC-257 melanoma) of 57 µM and a TGI (SK-MEL-28 melanoma) of 43.2 µM. It also gave a TGI (NCI-H522 lung) of 79.2 µM, a TGI (SK-MEL-2 melanoma) of 49.3 µM and a TGI (OVCAR-3 ovarian) of 74.5 µM. The TGI (SF-268 CNS) was 66.1 µM, the TGI (OVCAR-4 ovarian) was > 100 µM and the TGI (SW-620 colon) was 44.9 µM. It also gave a TGI (M19-MEL melanoma) of 66 µM, a TGI (IGROV1 ovarian) of 74.4 µM and a TGI (HOP-62 NSCLC) of 59.4 µM. The TGI (LXFL 529 NSCLC) was 76.9 µM, the TGI (RPMI-8226 leukemia) was 28.6 µM and the TGI (KM20L2 colon) was 44 µM. The TGI (HOP-18 NSCLC) was 47.2 µM, the TGI (SN12C renal) was 68.9 µM and the TGI (A549 NSCLC) was 40 µM. The TGI (HT29 colon) was 49.7 µM, the TGI (OVCAR-5 ovarian) was 45.3 µM and the TGI (OVCAR-8 ovarian) was 52.4 µM. The TGI (HCC-2998 colon) was 52 µM, the TGI (EKVX NSCLC) was 48.1 µM and the TGI (HCT-116 colon) was 55.3 µM. The TGI (MALME-3M melanoma) was 15.5 µM, the TGI (SF-539 CNS) was 54.4 µM and the TGI (SK-MEL-5 melanoma) was 30.2 µM. For the same molecule, the TGI (LOX IMVI melanoma) was > 100 µM, the TGI (SNB-75 CNS) was 55.3 µM and the TGI (CAKI-1 renal) was 49.7 µM. For the same molecule, the TGI (SF-295 CNS) was 74.8 µM, the TGI (786-0 renal) was 47.1 µM and the TGI (DMS 273 small cell lung) was 55.8 µM. The TGI (COLO 205 colon) was > 100 µM, the TGI (SNB-19 CNS) was 62.5 µM and the TGI (DLD-1 colon) was 73.9 µM. For the same molecule, the TGI (K-562 leukemia) was 40.9 µM, the TGI (U251 CNS) was 36.8 µM and the TGI (SNB-78 CNS) was 93.1 µM. The TGI (RXF 393 renal) was 43.2 µM.
`C(=C\c1cc(CCc2nc3ccccc3[nH]2)[nH]n1)/c1ccccc1` was tested, and the TGI (CCRF-CEM leukemia) was > 100 µM, the TGI (TK-10 renal) was > 100 µM and the TGI (SK-OV-3 ovarian) was > 100 µM. For the same molecule, the TGI (NCI-H226 lung) was > 100 µM, the TGI (KM12 colon) was > 100 µM and the TGI (NCI-H23 lung) was > 100 µM. For the same molecule, the TGI (NCI-H460 lung) was > 100 µM, the TGI (XF 498 CNS) was > 100 µM and the TGI (UO-31 renal) was > 100 µM. The TGI (RXF-631 renal) was > 100 µM, the TGI (ACHN renal) was > 100 µM and the TGI (HCT-15 colon) was > 100 µM. The TGI (UACC-62 melanoma) was > 100 µM, the TGI (DMS 114 small cell lung) was > 100 µM and the TGI (M14 melanoma) was > 100 µM. The TGI (MOLT-4 leukemia) was > 100 µM, the TGI (HOP-92 NSCLC) was > 100 µM and the TGI (UACC-257 melanoma) was > 100 µM. The TGI (SK-MEL-28 melanoma) was > 100 µM, the TGI (NCI-H522 lung) was > 100 µM and the TGI (OVCAR-3 ovarian) was > 100 µM. The TGI (SF-268 CNS) was > 100 µM, the TGI (OVCAR-4 ovarian) was > 100 µM and the TGI (HL-60(TB) leukemia) was > 100 µM. For the same molecule, the TGI (A498 renal) was > 100 µM, the TGI (SW-620 colon) was > 100 µM and the TGI (M19-MEL melanoma) was > 100 µM. The TGI (IGROV1 ovarian) was > 100 µM, the TGI (HOP-62 NSCLC) was > 100 µM and the TGI (SR leukemia) was > 100 µM. The TGI (RPMI-8226 leukemia) was > 100 µM, the TGI (KM20L2 colon) was > 100 µM and the TGI (HOP-18 NSCLC) was > 100 µM. The TGI (SN12C renal) was > 100 µM, the TGI (A549 NSCLC) was > 100 µM and the TGI (HT29 colon) was > 100 µM. For the same molecule, the TGI (OVCAR-5 ovarian) was > 100 µM, the TGI (OVCAR-8 ovarian) was > 100 µM and the TGI (HCC-2998 colon) was > 100 µM. The TGI (EKVX NSCLC) was > 100 µM, the TGI (HCT-116 colon) was > 100 µM and the TGI (MALME-3M melanoma) was > 100 µM. For the same molecule, the TGI (SF-539 CNS) was > 100 µM, the TGI (SK-MEL-5 melanoma) was > 100 µM and the TGI (LOX IMVI melanoma) was > 100 µM. The TGI (SNB-75 CNS) was > 100 µM, the TGI (CAKI-1 renal) was > 100 µM and the TGI (SF-295 CNS) was > 100 µM. For the same molecule, the TGI (786-0 renal) was > 100 µM, the TGI (COLO 205 colon) was > 100 µM and the TGI (SNB-19 CNS) was > 100 µM. For the same molecule, the TGI (DLD-1 colon) was > 100 µM, the TGI (K-562 leukemia) was > 100 µM and the TGI (U251 CNS) was > 100 µM. The TGI (RXF 393 renal) was > 100 µM.
For `COC1CC(OC2C(C)OC(OC3C(C)OC(OC4CCC5(C)C(=CCC6(O)C5CC(OC(=O)c5ccc(O)cc5)C5(C)C(O)(C(C)=O)CCC65O)C4)CC3OC)CC2OC)OC(C)C1O` (stereo not drawn) (tested in a mixture with another compound), the TGI (CCRF-CEM leukemia) was 92.7 µM, the TGI (TK-10 renal) was > 100 µM and the TGI (SK-OV-3 ovarian) was > 100 µM. For the same molecule, the TGI (NCI-H226 lung) was > 100 µM, the TGI (NCI-H23 lung) was 81.6 µM and the TGI (NCI-H460 lung) was > 100 µM. The TGI (XF 498 CNS) was 9.05 µM, the TGI (UO-31 renal) was 75 µM and the TGI (RXF-631 renal) was > 100 µM. The TGI (ACHN renal) was > 100 µM, the TGI (HCT-15 colon) was > 100 µM and the TGI (UACC-62 melanoma) was 52.7 µM. The TGI (MOLT-4 leukemia) was 82.2 µM, the TGI (HOP-92 NSCLC) was 59.5 µM and the TGI (UACC-257 melanoma) was 51.3 µM. The TGI (SK-MEL-28 melanoma) was > 100 µM, the TGI (SK-MEL-2 melanoma) was 45.3 µM and the TGI (OVCAR-3 ovarian) was 57.2 µM. The TGI (SF-268 CNS) was > 100 µM, the TGI (HL-60(TB) leukemia) was 46.9 µM and the TGI (SW-620 colon) was > 100 µM. The TGI (M19-MEL melanoma) was > 100 µM, the TGI (IGROV1 ovarian) was > 100 µM and the TGI (HOP-62 NSCLC) was > 100 µM. For the same molecule, the TGI (LXFL 529 NSCLC) was 78.4 µM, the TGI (SR leukemia) was 76.5 µM and the TGI (RPMI-8226 leukemia) was 95.8 µM. For the same molecule, the TGI (HOP-18 NSCLC) was > 100 µM, the TGI (SN12C renal) was > 100 µM and the TGI (A549 NSCLC) was > 100 µM. For the same molecule, the TGI (HT29 colon) was > 100 µM, the TGI (OVCAR-5 ovarian) was > 100 µM and the TGI (OVCAR-8 ovarian) was 82.5 µM. The TGI (HCC-2998 colon) was 60.5 µM, the TGI (EKVX NSCLC) was > 100 µM and the TGI (MALME-3M melanoma) was 74.6 µM. The TGI (SF-539 CNS) was 72.6 µM, the TGI (LOX IMVI melanoma) was 34.8 µM and the TGI (SNB-75 CNS) was > 100 µM. For the same molecule, the TGI (SF-295 CNS) was > 100 µM, the TGI (786-0 renal) was 57.1 µM and the TGI (DMS 273 small cell lung) was > 100 µM. The TGI (COLO 205 colon) was 55.3 µM, the TGI (SNB-19 CNS) was > 100 µM and the TGI (DLD-1 colon) was > 100 µM. For the same molecule, the TGI (U251 CNS) was 57.5 µM, the TGI (SNB-78 CNS) was 57.2 µM and the TGI (RXF 393 renal) was > 100 µM.
